Non-standard residues stand in square brackets, D forms with d. Residues, ends and D or L forms follow the SMILES beside them. Nle = CCCC[C@H](N)C(=O)O
Each compound was assayed on secretion of ACTH and β-END-LI.
With `CCCC[C@H](NC(=O)[C@H](CCC(=O)O)NC(=O)[C@H](CC(C)C)NC(=O)[C@H](CCCC)NC(=O)[C@H](CCC(=O)O)NC(=O)[C@H](CCCNC(=N)N)NC(=O)[C@H](CC(C)C)NC(=O)[C@H](CC(C)C)NC(=O)[C@H](Cc1c[nH]cn1)NC(=O)[C@H](Cc1ccccc1)NC(=O)[C@@H](NC(=O)[C@H](CC(C)C)NC(=O)[C@@H](N)CC(=O)O)[C@@H](C)O)C(=O)N[C@@H](C)C(=O)N[C@@H](CCCNC(=N)N)C(=O)N[C@@H](C)C(=O)N[C@@H](CCC(=O)O)C(=O)N[C@@H](CCC(N)=O)C(=O)N[C@@H](CCC(=O)O)C(=O)N[C@@H](C)C(=O)N[C@@H](CCC(=O)O)C(=O)N[C@@H](CCC(N)=O)C(=O)N[C@@H](C)C(=O)N[C@@H](C)C(=O)N[C@@H](CC(C)C)C(=O)N[C@@H](CC(N)=O)C(=O)N[C@@H](CCCNC(=N)N)C(=O)N[C@@H](CC(C)C)C(=O)N[C@@H](CC(C)C)C(=O)N[C@@H](CC(C)C)C(=O)N[C@@H](CCC(=O)O)C(=O)N[C@@H](CCC(=O)O)C(=O)N[C@@H](C)C(N)=O` [[Nle^18,21]-AAHC(9-41)] (H-DLTFHLLRE[Nle]LE[Nle]ARAEQEAEQAALNRLLLEEA-NH2) the “secretion of ACTH (inhibition)” value was “inhibits” and the “secretion of β-END-LI (inhibition)” value was “inhibits”.
With `CCCC[C@H](NC(=O)[C@H](CCC(=O)O)NC(=O)[C@H](CC(C)C)NC(=O)[C@H](CCCC)NC(=O)[C@H](CCC(=O)O)NC(=O)[C@H](CCCNC(=N)N)NC(=O)[C@H](CC(C)C)NC(=O)[C@H](CC(C)C)NC(=O)[C@H](Cc1c[nH]cn1)NC(=O)[C@H](Cc1ccccc1)NC(=O)[C@@H](NC(=O)[C@@H](N)CC(C)C)[C@@H](C)O)C(=O)N[C@@H](C)C(=O)N[C@@H](CCCNC(=N)N)C(=O)N[C@@H](C)C(=O)N[C@@H](CCC(=O)O)C(=O)N[C@@H](CCC(N)=O)C(=O)N[C@@H](CCC(=O)O)C(=O)N[C@@H](C)C(=O)N[C@@H](CCC(=O)O)C(=O)N[C@@H](CCC(N)=O)C(=O)N[C@@H](C)C(=O)N[C@@H](C)C(=O)N[C@@H](CC(C)C)C(=O)N[C@@H](CC(N)=O)C(=O)N[C@@H](CCCNC(=N)N)C(=O)N[C@@H](CC(C)C)C(=O)N[C@@H](CC(C)C)C(=O)N[C@@H](CC(C)C)C(=O)N[C@@H](CCC(=O)O)C(=O)N[C@@H](CCC(=O)O)C(=O)N[C@@H](C)C(N)=O` [[Nle^18,21]-AAHC(10-41)] (H-LTFHLLRE[Nle]LE[Nle]ARAEQEAEQAALNRLLLEEA-NH2) the “secretion of ACTH (inhibition)” value was “inhibits” and the “secretion of β-END-LI (inhibition)” value was “inhibits”.
In the case of “H-Asp-CML-Thr-Leu-Glu -CML-CML-Arg-Glu-Met-CML-Glu-Met-CMA-Arg-Ala-Glu-Gln-CML -Ala-Glu-Gln-Ala-CMA-CML-Asn-Arg-Leu-CML-Leu-Glu-Glu-CMA-NH2”, the “secretion of ACTH (inhibition)” value was “inhibits” and the “secretion of β-END-LI (inhibition)” value was “inhibits”.
For “H-DLTFELLREVLEVARAEQLAQQAHSNRRLMEII-NH2 [[Glu^13, Val^21, Arg^36]-rCRF (9-41)]”, the “secretion of ACTH (inhibition)” value was “inhibits” and the “secretion of β-END-LI (inhibition)” value was “inhibits”.
“H-DLTFHLLREMLEMARAEQEAEQAALNRLLLEEA-NH2 [AAHC(9-41)]” was tested, and the “secretion of ACTH (inhibition)” value was “inhibits”.
In the case of “H-DLTFHLLREVAEMTRAEQLAQQAHSNRRLMEII-NH2 [[Ala^19, Thr^22, Arg^36]-hCRF (9-41)]”, the “secretion of ACTH (inhibition)” value was “inhibits” and the “secretion of β-END-LI (inhibition)” value was “inhibits”.
“H-DLTFHLLREVLEMARAEQLAQQAHSNRRLMEII-NH2 [[Arg^36]-rCRF (9-41)]” was tested, and the “secretion of ACTH (inhibition)” value was “inhibits”.
For “H-IDLTFHLLRNMIEMARNENQREQAGLNRRYLDEV-NH2 [[Arg^36]-Carp Urotensin I(8-41)]”, the “secretion of ACTH (inhibition)” value was “inhibits” and the “secretion of β-END-LI (inhibition)” value was “inhibits”.
“H-LDLTFHLLREVLEMARAEQLAQQAHSNRRLMEII-NH2 [[Arg^36]-rCRF(8-41)]” was tested, and the “secretion of ACTH (inhibition)” value was “inhibits” and the “secretion of β-END-LI (inhibition)” value was “inhibits”.
For “H-LTFHLLREVLEMARAEQLAQQAHSNRRLMEII-NH2 [[Arg^36]-rCRF(10-41)]”, the “secretion of ACTH (inhibition)” value was “inhibits” and the “secretion of β-END-LI (inhibition)” value was “inhibits”.

These compounds were tested on gonadotropes (anterior pituitary cells).
Assay type: cell-based, rat
“H-Ser-Gln-Glu-Pro-Pro-Ile-Ser-Leu-Asp-Leu-Thr-Phe-His -Leu-Leu-Arg-Glu-Val-Leu-Glu-Met-Thr-Lys-Ala-Asp-Gln -Leu-Ala-Gln-Gln-Ala-His-Ser-Asn-Arg-Lys-Leu-Leu-Asp-Ile-Ala-NH2 [CRF]” was tested, and the “LH-secretory response to GnRH after pretreatment” value was “no effect” and the “effect on LH content” value was “neither CRF nor the cytotoxic conjugate has any significant effect on LH content”.

What follows are compounds tested on CRF Target Cells (anterior pituitary cells).
Assay type: cell-based, rat
In the case of “H-Ser-Gln-Glu-Pro-Pro-Ile-Ser-Leu-Asp-Leu-Thr-Phe-His -Leu-Leu-Arg-Glu-Val-Leu-Glu-Met-Thr-Lys-Ala-Asp-Gln -Leu-Ala-Gln-Gln-Ala-His-Ser-Asn-Arg-Lys-Leu-Leu-Asp-Ile-Ala-NH2 [CRF]”, the “ACTH secretion in response to CRF 3 days following pretreatment” value was 3.7 times the basal rate, the “ACTH-secretory response to subsequent CRF after pretreatment” value was “does not eliminate the ability of the cells to respond” and the “decrease of ACTH content” value was 40%.
